Assay results reported in patent US20220009894A1, “1,2,3,4-TETRAHYDROQUINOXALINE DERIVATIVE, PREPARATION METHOD THEREFOR AND APPLICATION THEREOF” (Abbisko Therapeutics Co., Ltd., priority 2019, published 2022).

Tests used:
RORγt = target: T1, RORγt (Homo sapiens, UniProt P51449); assay: RORγt cellular reporter gene detection assay; type: cell-based; details: 24 hrs; for EC50: HEK 293 cells co-transfected with pFN26A-RORγt-LBD and pG14.35, in presence of antagonist Ursolic acid, top concentration 50 μM; for Cellular Reporter Assay Amax: upper activation limit, HEK 293 cells, in presence of antagonist Ursolic acid;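 on Cellular Reporter Assay Amax: Ursolic Acid added as 5 µL of 20 µM medium per well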
T1 construct: The plasmid of pFN26A-RORγt-LBD and pG14.35 (Promega, Cat. No. E1370) were co-transfected into HEK 293 cells; expressed in transfected cells; host or cells: HEK 293 cells (Cat. No. GNHu18)
T1 sequence (P51449 269-508 limits assumed): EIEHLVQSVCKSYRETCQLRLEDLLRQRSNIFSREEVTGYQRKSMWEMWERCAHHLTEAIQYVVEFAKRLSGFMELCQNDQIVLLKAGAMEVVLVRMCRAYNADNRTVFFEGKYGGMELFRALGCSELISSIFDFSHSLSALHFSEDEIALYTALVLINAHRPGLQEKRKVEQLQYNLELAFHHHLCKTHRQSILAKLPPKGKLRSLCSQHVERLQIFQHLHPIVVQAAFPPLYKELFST
Method in brief: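 HEK293 cells co-transfected with RORγt-LBD and luciferase reporter plasmids, treated with Ursolic acid antagonist plus compound in 4-fold dilutions from 50 μM for 24 h at 37° C. Firefly and Renilla luminescence read; EC50 and Amax from four-parameter fit.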

RORγt-LBD = target: T2, RORγt-LBD (Homo sapiens, UniProt P51449); assay: Time-resolved fluorescence resonance energy-transfer assay (TR-FRET), co-activator peptide recruitment; type: biochemical; design: TR-FRET Biochemical Amax: unit not given here; details: for EC50: His-RORγt-LBD 30 nM, SRC peptide 500 nM, agonistic activity, averages of one or more measurements, read-out: TR-FRET Biochemical EC50/; for TR-FRET Biochemical Amax: upper activation limit, His-RORγt-LBD, SRC peptide
T2 sequence (P51449 269-508 limits assumed): T1 sequence (P51449 269-508 limits assumed)
Method in brief: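 Eu-anti-His-labelled His-RORγt-LBD (30 nM final) recruits biotin-SRC co-activator peptide (500 nM final), detected via APC-streptavidin (5 nM) and Eu-anti-His (0.25 nM). Buffer was Tris/KCl/EDTA at pH 7.0 with 0.01% Triton X-100 and 1 mM DTT. Compounds were tested at 7 points in 5-fold dilutions. Plates were incubated overnight at 4 °C then 1 h at RT, and agonism was read as the 665/615 nm ratio.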

CCOC(=O)C(=O)N1CCN2c3ccc(/C=C/c4c(Cl)cccc4C(F)(F)F)cc3N(S(=O)(=O)c3cccc(C(F)(F)F)c3)C[C@@H]2C1 [Example 58, ethyl (S,E)-2-(8-(2-chloro-6-(trifluoromethyl)styryl)-6-((3-(trifluoromethyl)phenyl)sulfonyl)-1,2,4,4a,5,6-hexahydro-3H-pyrazino[1,2-a]quinoxalin-3-yl)-2-oxoacetate]
EC50 (RORγt): 1400 nM | Cellular Reporter Assay Amax (RORγt): 4.0 | EC50 (RORγt-LBD): 19.4 nM | TR-FRET Biochemical Amax (RORγt-LBD): 0.79

NC(=O)C1(N2CCN3c4ccc(/C=C/c5c(Cl)cccc5C(F)(F)F)cc4N(S(=O)(=O)c4cccc(C(F)(F)F)c4)C[C@@H]3C2)CCC1 [Example 81, (S,E)-1-(8-(2-chloro-6-(trifluoro-methyl)styryl)-6-((3-(trifluoro-methyl)phenyl)sulfonyl)-1,2,4,4a,5,6-hexa-hydro-3H-pyrazino[1,2-a]quinoxalin-3-yl) cyclobutane-1-carboxamide]
EC50 (RORγt): 355 nM | Cellular Reporter Assay Amax (RORγt): 4.0 | EC50 (RORγt-LBD): 21.2 nM | TR-FRET Biochemical Amax (RORγt-LBD): 1.19

CC1(C)C=C(c2ccc3c(c2)N(S(=O)(=O)c2cccc(C(F)(F)F)c2)C[C@@H]2CNCCN32)CC(C)(C)O1 [Example 13, (S)-8-(2,2,6,6-tetramethyl-3,6-dihydro-2H-pyran-4-yl)-6-((3-(trifluorometh-yl)phenyl)sulfonyl)-2,3,4,4a,5,6-hexahydro-1H-pyrazino[1,2-a]quinoxaline]
EC50 (RORγt): 1420 nM | Cellular Reporter Assay Amax (RORγt): 1.7 | EC50 (RORγt-LBD): 35.8 nM | TR-FRET Biochemical Amax (RORγt-LBD): 0.74

CN1c2ccc(C3CC(C)(C)OC(C)(C)C3)cc2N(S(=O)(=O)c2cccc(C(F)(F)F)c2)C[C@@H]1CCC(=O)O [Example 119, (S)-3-(1-methyl-6-(2,2,6,6-tetramethyltetrahydro-2H-pyran-4-yl)-4-((3-(trifluoromethyl)phenyl)sulfonyl)-1,2,3,4-tetrahydroquinoxalin-2-yl)propanoic acid]
EC50 (RORγt): 295 nM | Cellular Reporter Assay Amax (RORγt): 1.1 | EC50 (RORγt-LBD): 31.5 nM | TR-FRET Biochemical Amax (RORγt-LBD): 0.41

CC(C)OC(=O)OCOC(=O)CN1CCN2c3ccc(/C=C/c4c(Cl)cccc4C(F)(F)F)cc3N(S(=O)(=O)c3cccc(C(F)(F)F)c3)C[C@@H]2C1 [Example 50, ((isopropoxycarbonyl)oxy)methyl (S,E)-2-(8-(2-chloro-6-(trifluoromethyl)styryl)-6-((3-(trifluoromethyl)phenyl)sulfonyl)-1,2,4,4a,5,6-hexahydro-3H-pyrazino[1,2-a]quinoxalin-3-yl)acetate]
EC50 (RORγt): 676 nM | Cellular Reporter Assay Amax (RORγt): 6.3 | EC50 (RORγt-LBD): 8.13 nM | TR-FRET Biochemical Amax (RORγt-LBD): 0.64

CC1(C)C=C(c2ccc3c(c2)N(S(=O)(=O)c2cccc(C(F)(F)F)c2)C[C@@H]2CN(CC(=O)O)CCN32)CC(C)(C)O1 [Example 22, (S)-2-(8-(2,2,6,6-tetramethyl-3,6-dihydro-2H-pyran-4-yl)-6-((3-(trifluoromethyl)phenyl)sulfonyl)-1,2,4,4a,5,6-hexa-hydro-3H-pyrazino[1,2-a]quinoxalin-3-yl)acetic acid]
EC50 (RORγt): 245 nM | Cellular Reporter Assay Amax (RORγt): 3.3 | EC50 (RORγt-LBD): 1.51 nM | TR-FRET Biochemical Amax (RORγt-LBD): 0.62

C[C@@]1(O)CCN2c3ccc(-c4cc(F)cc(OC(F)F)c4)cc3N(S(=O)(=O)c3cccc(C(F)(F)F)c3)C[C@@H]2C1 [Example 107, (6aS,8R)-3-(3-(difluoromethoxy)-5-fluorophenyl)-8-methyl-5-((3-(trifluoromethyl)phenyl)sulfonyl)-6,6a,7,8,9,10-hexahydro-5H-pyrido[1,2-a]quinoxalin-8-ol]
EC50 (RORγt): 643 nM | Cellular Reporter Assay Amax (RORγt): 3.0 | EC50 (RORγt-LBD): 98.3 nM | TR-FRET Biochemical Amax (RORγt-LBD): 1.31

CS(=O)(=O)COC1CCN2c3ccc(-c4cc(F)cc(OC(F)F)c4)cc3N(S(=O)(=O)c3cccc(C(F)(F)F)c3)C[C@@H]2C1 (stereo partly drawn) [Example 110, (6aS)-3-(3-(difluoromethoxy)-5-fluorophenyl)-8-((methylsulfonyl)methoxy)-5-((3-(trifluoromethyl)phenyl)sulfonyl)-6,6a,7,8,9,10-hexahydro-5H-pyrido[1,2-a]quinoxaline]
EC50 (RORγt): 214 nM | Cellular Reporter Assay Amax (RORγt): 2.8 | EC50 (RORγt-LBD): 12.1 nM | TR-FRET Biochemical Amax (RORγt-LBD): 0.76

CCOC(=O)C(=O)N1CCN2c3ccc(/C=C(\C)c4c(F)cccc4Cl)cc3N(S(=O)(=O)c3cccc(C(F)(F)F)c3)C[C@@H]2C1 [Example 57, ethyl (S,E)-2-(8-(2-(2-chloro-6-fluorophenyl)prop-1-en-1-yl)-6-((3-(trifluoromethyl)phenyl)sulfonyl)-1,2,4,4a,5,6-hexahydro-3H-pyrazino[1,2-a]quinoxalin-3-yl)-2-oxoacetate]
EC50 (RORγt): 304 nM | Cellular Reporter Assay Amax (RORγt): 3.2 | EC50 (RORγt-LBD): 6.54 nM | TR-FRET Biochemical Amax (RORγt-LBD): 0.89

O=S(=O)(c1cc(C(F)(F)F)cnc1OCCO)N1C[C@@H]2CNCCN2c2ccc(-c3cc(F)cc(OC(F)F)c3)cc21 [Example 87, (S)-2-((3-((8-(3-(difluoromethoxy)-5-fluorophenyl)-1,2,3,4,4a,5-hexahydro-6H-pyrazino[1,2-a]quinoxalin-6-yl)sulfonyl)-5-(trifluoromethyl)pyridin-2-yl)oxy) ethan-1-ol]
EC50 (RORγt): ≥ 50000 nM | EC50 (RORγt-LBD): 384 nM | TR-FRET Biochemical Amax (RORγt-LBD): 0.96

CC1(C)C=C(c2ccc3c(c2)N(S(=O)(=O)c2cc(C(F)(F)F)cnc2OCCO)C[C@@H]2CNCCN32)CC(C)(C)O1 [Example 88, (S)-2-((3-((8-(2,2,6,6-tetramethyl-3,6-dihydro-2H-pyran-4-yl)-1,2,3,4,4a,5-hexa hydro-6H-pyrazino[1,2-a]quinoxalin-6-yl)sulfonyl)-5-(trifluoromethyl)pyridin-2-yl)oxy)ethan-1-ol]
EC50 (RORγt): ≥ 50000 nM | EC50 (RORγt-LBD): 191 nM | TR-FRET Biochemical Amax (RORγt-LBD): 0.72

CC(C(=O)O)N1CCN2c3ccc(-c4cc(F)cc(OC(F)F)c4)cc3N(S(=O)(=O)c3cccc(C(F)(F)F)c3)C[C@@H]2C1 (stereo partly drawn) [Example 26, 2-((S)-8-(3-(difluorome-thoxy)-5-fluorophenyl)-6-((3-(trifluoromethyl)phe-nyl)sulfonyl)-1,2,4,4a,5,6-hexahydro-3H-pyrazino[1,2-a]quinoxalin-3-yl) propanoic acid]
EC50 (RORγt): 404 nM | Cellular Reporter Assay Amax (RORγt): 2.3 | EC50 (RORγt-LBD): 29.6 nM | TR-FRET Biochemical Amax (RORγt-LBD): 0.64

O=S(=O)(c1cccc(C(F)(F)F)c1)N1C[C@@H]2CNCCN2c2ccc(/C=C/c3c(Cl)cccc3C(F)(F)F)cc21 [Example 11, (S,E)-8-(2-chloro-6-(tri-fluoromethyl)styryl)-6-((3-(trifluoromethyl)phenyl)sulfonyl)-2,3,4,4a,5,6-hexa-hydro-1H-pyrazino[1,2-a]quinoxaline]
EC50 (RORγt): 429 nM | Cellular Reporter Assay Amax (RORγt): 3.2 | EC50 (RORγt-LBD): 21.7 nM | TR-FRET Biochemical Amax (RORγt-LBD): 0.82

CN1c2ccc(/C=C/c3c(Cl)cccc3C(F)(F)F)cc2N(S(=O)(=O)c2cccc(C(F)(F)F)c2)C[C@@H]1CCC(=O)O [Example 6, (S,E)-3-(6-(2-chloro-6-(tri-fluoromethyl)styryl)-1-meth-yl-4-((3-(trifluoromethyl)phenyl)sulfonyl)-1,2,3,4-tetrahydroquinoxalin-2-yl) propanoic acid]
EC50 (RORγt): 528 nM | Cellular Reporter Assay Amax (RORγt): 4.2 | EC50 (RORγt-LBD): 16.1 nM | TR-FRET Biochemical Amax (RORγt-LBD): 1.54

C/C(=C\c1ccc2c(c1)N(S(=O)(=O)c1cccc(C(F)(F)F)c1)C[C@@H]1CN(C3(C#N)CCC3)CCN21)c1c(F)cccc1Cl [Example 76, (S,E)-1-(8-(2-(2-chloro-6-fluorophenyl)prop-1-en-1-yl)-6-((3-(trifluoromethyl)phenyl)sulfonyl)-1,2,4,4a,5,6-hexahydro-3H-pyrazino[1,2-a]quinoxalin-3-yl)cyclobutane-1-carbonitrile]
EC50 (RORγt): 1180 nM | Cellular Reporter Assay Amax (RORγt): 3.2 | EC50 (RORγt-LBD): 6.54 nM | TR-FRET Biochemical Amax (RORγt-LBD): 0.99

CC1(C)C=C(c2ccc3c(c2)N(S(=O)(=O)c2cccc(C(F)(F)F)c2)C[C@@H]2CN(S(C)(=O)=O)CCN32)CC(C)(C)O1 [Example 19, (S)-3-(methylsulfonyl)-8-(2,2,6,6-tetramethyl-3,6-dihydro-2H-pyran-4-yl)-6-((3-(trifluorometh-yl)phenyl)sulfonyl)-2,3,4,4a,5,6-hexahydro-1H-pyrazino[1,2-a]quinoxaline]
EC50 (RORγt): 25.7 nM | Cellular Reporter Assay Amax (RORγt): 2.0 | EC50 (RORγt-LBD): 17.8 nM | TR-FRET Biochemical Amax (RORγt-LBD): 0.97

C/C(=C\c1ccc2c(c1)N(S(=O)(=O)c1cccc(C(F)(F)F)c1)C[C@@H]1CN(CC(C)(C)O)CCN21)c1c(F)cccc1Cl [Example 82, (S,E)-1-(8-(2-(2-chloro-6-fluorophenyl)prop-1-en-1-yl)-6-((3-(trifluoromethyl)phenyl)sulfonyl)-1,2,4,4a,5,6-hexahydro-3H-pyrazino[1,2-a]quinoxalin-3-yl)-2-methylpropan-2-ol]
EC50 (RORγt): 394 nM | Cellular Reporter Assay Amax (RORγt): 4.5 | EC50 (RORγt-LBD): 28.1 nM | TR-FRET Biochemical Amax (RORγt-LBD): 1.09
